{
  "source": "patent JP2021024822A",
  "about": "“安定化されたトリメブチンマレイン酸塩含有固形製剤” (Kyoto Pharmaceutical Industries Ltd, priority 2019, dated 2021)",
  "assay": "Related substance A content of the trimebutine maleate drug substance used",
  "format": "physicochemical",
  "details": "drug substance used in this study",
  "data": [
    {"smiles": "CCC(COC(=O)c1cc(OC)c(OC)c(OC)c1)(c1ccccc1)N(C)C", "note": "(stereo not shown) [トリメブチンマレイン酸塩]", "values": [
      {"measurement": "content of related substance A in the trimebutine maleate drug substance", "result": 0.06, "unit": "%"}
    ]}
  ]
}
